These results are taken from patent US20230167073A1 (Teijin Pharma Limited, priority 2020, published 2023).

Bounds are passed on as bounds.

The target in this experiment is T1, Human TRPC6 (Homo sapiens, UniProt Q9Y210).
T1 construct: expressed in transfected cells
T1 sequence (Q9Y210 1-931): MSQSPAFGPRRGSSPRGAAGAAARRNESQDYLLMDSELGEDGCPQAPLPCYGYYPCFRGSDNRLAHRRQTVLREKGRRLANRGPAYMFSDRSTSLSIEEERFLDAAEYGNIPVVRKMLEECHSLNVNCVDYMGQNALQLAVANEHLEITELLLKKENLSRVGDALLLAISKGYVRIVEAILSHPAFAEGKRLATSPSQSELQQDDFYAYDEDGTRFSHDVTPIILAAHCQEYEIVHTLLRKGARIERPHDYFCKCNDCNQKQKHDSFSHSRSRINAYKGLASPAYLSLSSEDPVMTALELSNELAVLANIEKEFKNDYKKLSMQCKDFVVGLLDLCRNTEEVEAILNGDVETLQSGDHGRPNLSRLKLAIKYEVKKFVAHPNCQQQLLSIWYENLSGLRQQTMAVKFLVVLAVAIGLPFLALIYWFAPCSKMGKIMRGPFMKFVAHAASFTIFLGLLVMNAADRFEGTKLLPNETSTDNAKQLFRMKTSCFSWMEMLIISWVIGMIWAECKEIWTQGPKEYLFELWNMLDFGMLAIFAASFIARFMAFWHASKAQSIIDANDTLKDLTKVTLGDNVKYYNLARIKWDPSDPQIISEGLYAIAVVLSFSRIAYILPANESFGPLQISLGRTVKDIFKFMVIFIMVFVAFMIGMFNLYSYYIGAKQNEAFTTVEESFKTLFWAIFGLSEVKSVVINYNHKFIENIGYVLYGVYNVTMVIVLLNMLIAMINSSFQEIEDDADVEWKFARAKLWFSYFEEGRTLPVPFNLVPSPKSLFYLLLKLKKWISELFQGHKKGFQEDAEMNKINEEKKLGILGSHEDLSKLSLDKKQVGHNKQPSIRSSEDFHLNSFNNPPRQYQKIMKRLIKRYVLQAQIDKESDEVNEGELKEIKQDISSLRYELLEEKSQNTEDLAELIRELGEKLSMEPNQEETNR
In words: Evaluation of TRPC6 channel inhibitory activity (1), FLIPR Calcium 5 Assay Kit, OAG stimulation (Compound Nos. 1-1293). The format is cell-based. The following applies: Human TRPC6 stably-expressing cells, OAG 30 μM, FLIPR Calcium 5 Assay Kit; read-out: Inhibitory activity (pIC50 class) (converted). In short, it runs like this:
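Stable human TRPC6 line; fluorescent Ca2+ dye loading, then 20 min compound exposure before 30 μM OAG trigger. Peak-minus-baseline signal converted to % inhibition against untreated and unstimulated wells; potency given as pIC50 band.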

As for `Cc1sc(N2CCOCC2)nc1C(=O)c1cc(C#N)ccc1-c1ccc(CCN)cn1` [compound 1068, 4-[5-(2-aminoethyl)pyridin-2-yl]-3-(5-methyl-2-morpholin-4-yl-1,3-thiazole-4-carbonyl)benzonitrile], the IC50 was 10 to 1000 nM. Then `Cc1sc(N2CCOCC2)nc1C(=O)c1cc(C#N)ccc1-c1ncc(CN)cn1` [compound 1069, 4-[5-(aminomethyl)pyrimidin-2-yl]-3-(5-methyl-2-morpholin-4-yl-1,3-thiazole-4-carbonyl)benzonitrile], with more than 1000 nM; and `Cc1sc(N2CCOCC2)nc1C(=O)c1cc(C#N)ccc1-c1ncc(CCN)cn1` [compound 1070, 4-[5-(2-aminoethyl)pyrimidin-2-yl]-3-(5-methyl-2-morpholin-4-yl-1,3-thiazole-4-carbonyl)benzonitrile], with more than 1000 nM; and `Cn1nc(N2CCCC2)cc1C(=O)c1cc(C#N)ccc1-c1ncc(CCN)cn1` [compound 1071, 4-[5-(2-aminoethyl)pyrimidin-2-yl]-3-(2-methyl-5-pyrrolidin-1-ylpyrazole-3-carbonyl)benzonitrile], with less than 10 nM.

As to `Cn1nc(N2CCCC2)cc1C(=O)c1cc(C#N)ccc1-c1ncc(CN)cn1` [compound 1072, 4-[5-(aminomethyl)pyrimidin-2-yl]-3-(2-methyl-5-pyrrolidin-1-ylpyrazole-3-carbonyl)benzonitrile], the IC50 was less than 10 nM. As to `CCN(CC(F)F)c1cc(C(=O)c2cc(C#N)ccc2-c2ncc(CCN)cn2)n(C)n1` [compound 1073, 4-[5-(2-aminoethyl)pyrimidin-2-yl]-3-[5-[2,2-difluoroethyl(ethyl)amino]-2-methylpyrazole-3-carbonyl]benzonitrile], the IC50 is less than 10 nM. The value for `CCN(CC(F)F)c1cc(C(=O)c2cc(C#N)ccc2-c2ncc(CN)cn2)n(C)n1` [compound 1074, 4-[5-(aminomethyl)pyrimidin-2-yl]-3-[5-[2,2-difluoroethyl(ethyl)amino]-2-methylpyrazole-3-carbonyl]benzonitrile] was less than 10 nM; that for `CNc1cc(C(=O)c2cc(C#N)ccc2-c2ccc(CCN)cn2)n(C)n1` [compound 1075, 4-[5-(2-aminoethyl)pyridin-2-yl]-3-[2-methyl-5-(methylamino)pyrazole-3-carbonyl]benzonitrile] was less than 10 nM; that for `Cc1nc(N2CCOCC2)sc1C(=O)c1cc(C#N)ccc1-c1ccc(CCN)cn1` [compound 1076, 4-[5-(2-aminoethyl)pyridin-2-yl]-3-(4-methyl-2-morpholin-4-yl-1,3-thiazole-5-carbonyl)benzonitrile] was less than 10 nM. As to `N#Cc1ccc(-c2ccc(CCN)cn2)c(C(=O)c2sc(N3CCOCC3)nc2C(F)(F)F)c1` [compound 1077, 4-[5-(2-aminoethyl)pyridin-2-yl]-3-[2-morpholin-4-yl-4-(trifluoromethyl)-1,3-thiazole-5-carbonyl]benzonitrile], the IC50 was less than 10 nM.

In the case of `N#Cc1ccc(-c2ncc(CCN)cn2)c(C(=O)c2sc(N3CCOCC3)nc2C(F)(F)F)c1` [compound 1078, 4-[5-(2-aminoethyl)pyrimidin-2-yl]-3-[2-morpholin-4-yl-4-(trifluoromethyl)-1,3-thiazole-5-carbonyl]benzonitrile], the IC50 is less than 10 nM. On to `N#Cc1ccc(-c2ccc(CCN)cc2)c(C(=O)c2cnnc(N3CCOCC3)c2)c1` [compound 1079, 4-[4-(2-aminoethyl)phenyl]-3-(6-morpholin-4-ylpyridazine-4-carbonyl)benzonitrile], for which the IC50 is less than 10 nM. Take `N#Cc1ccc(-c2ccc(CN)cn2)c(C(=O)c2sc(N3CCOCC3)nc2C(F)(F)F)c1` [compound 1080, 4-[5-(aminomethyl)pyridin-2-yl]-3-[2-morpholin-4-yl-4-(trifluoromethyl)-1,3-thiazole-5-carbonyl]benzonitrile]: the IC50 was less than 10 nM.

`N#Cc1ccc(-c2ccc(CCN)cc2)c(C(=O)c2cnc(N3CCOCC3)o2)c1` [compound 1081, 4-[4-(2-aminoethyl)phenyl]-3-(2-morpholin-4-yl-1,3-oxazole-5-carbonyl)benzonitrile]: the IC50 is 10 to 1000 nM.

For the molecule `N#Cc1ccc(-c2ncc(CN)cn2)c(C(=O)c2cnc(N3CCOCC3)o2)c1` [compound 1082, 4-[5-(aminomethyl)pyrimidin-2-yl]-3-(2-morpholin-4-yl-1,3-oxazole-5-carbonyl)benzonitrile], the IC50 was more than 1000 nM. `N#Cc1ccc(-c2ccc(CCN)cn2)c(C(=O)c2cnc(N3CCOCC3)o2)c1` [compound 1083, 4-[5-(2-aminoethyl)pyridin-2-yl]-3-(2-morpholin-4-yl-1,3-oxazole-5-carbonyl)benzonitrile]: the IC50 is 10 to 1000 nM. `N#Cc1ccc(-c2ncc(CCN)cn2)c(C(=O)c2cnc(N3CCOCC3)o2)c1` [compound 1084, 4-[5-(2-aminoethyl)pyrimidin-2-yl]-3-(2-morpholin-4-yl-1,3-oxazole-5-carbonyl)benzonitrile]: the IC50 was 10 to 1000 nM. The value for `N#Cc1ccc(-c2ccc(CN)cn2)c(C(=O)c2cnc(N3CCOCC3)o2)c1` [compound 1085, 4-[5-(aminomethyl)pyridin-2-yl]-3-(2-morpholin-4-yl-1,3-oxazole-5-carbonyl)benzonitrile] was 10 to 1000 nM; that for `N#Cc1ccc(-c2ccc(CCN)cc2)c(C(=O)c2nnc(N3CCOCC3)o2)c1` [compound 1086, 4-[4-(2-aminoethyl)phenyl]-3-(5-morpholin-4-yl-1,3,4-oxadiazole-2-carbonyl)benzonitrile] was less than 10 nM; that for `N#Cc1ccc(-c2ncc(CN)cn2)c(C(=O)c2sc(N3CCOCC3)nc2C(F)(F)F)c1` [compound 1087, 4-[5-(aminomethyl)pyrimidin-2-yl]-3-[2-morpholin-4-yl-4-(trifluoromethyl)-1,3-thiazole-5-carbonyl]benzonitrile] was less than 10 nM. Then `N#Cc1ccc(-c2ccc(CCN)cc2)c(C(=O)c2nnc(N3CCOCC3)s2)c1` [compound 1088, 4-[4-(2-aminoethyl)phenyl]-3-(5-morpholin-4-yl-1,3,4-thiadiazole-2-carbonyl)benzonitrile], with 10 to 1000 nM. As for `N#Cc1ccc(-c2ccc(CN)cn2)c(C(=O)c2nnc(N3CCOCC3)o2)c1` [compound 1089, 4-[5-(aminomethyl)pyridin-2-yl]-3-(5-morpholin-4-yl-1,3,4-oxadiazole-2-carbonyl)benzonitrile], the IC50 is 10 to 1000 nM. Regarding `N#Cc1ccc(-c2ncc(CN)cn2)c(C(=O)c2nnc(N3CCOCC3)o2)c1` [compound 1090, 4-[5-(aminomethyl)pyrimidin-2-yl]-3-(5-morpholin-4-yl-1,3,4-oxadiazole-2-carbonyl)benzonitrile], the IC50 is more than 1000 nM. In the case of `N#Cc1ccc(-c2ccc(CCN)cn2)c(C(=O)c2nnc(N3CCOCC3)o2)c1` [compound 1091, 4-[5-(2-aminoethyl)pyridin-2-yl]-3-(5-morpholin-4-yl-1,3,4-oxadiazole-2-carbonyl)benzonitrile], the IC50 is 10 to 1000 nM.

For the molecule `N#Cc1ccc(-c2ncc(CCN)cn2)c(C(=O)c2nnc(N3CCOCC3)o2)c1` [compound 1092, 4-[5-(2-aminoethyl)pyrimidin-2-yl]-3-(5-morpholin-4-yl-1,3,4-oxadiazole-2-carbonyl)benzonitrile], the IC50 was 10 to 1000 nM. Regarding `N#Cc1ccc(-c2ccc(CN)cn2)c(C(=O)c2nnc(N3CCOCC3)s2)c1` [compound 1093, 4-[5-(aminomethyl)pyridin-2-yl]-3-(5-morpholin-4-yl-1,3,4-thiadiazole-2-carbonyl)benzonitrile], the IC50 is more than 1000 nM. For the molecule `N#Cc1ccc(-c2ccc(CCN)cn2)c(C(=O)c2nnc(N3CCOCC3)s2)c1` [compound 1094, 4-[5-(2-aminoethyl)pyridin-2-yl]-3-(5-morpholin-4-yl-1,3,4-thiadiazole-2-carbonyl)benzonitrile], the IC50 was 10 to 1000 nM. Then `N#Cc1ccc(-c2ncc(CN)cn2)c(C(=O)c2nnc(N3CCOCC3)s2)c1` [compound 1095, 4-[5-(aminomethyl)pyrimidin-2-yl]-3-(5-morpholin-4-yl-1,3,4-thiadiazole-2-carbonyl)benzonitrile], with more than 1000 nM.

Regarding `N#Cc1ccc(-c2ncc(CCN)cn2)c(C(=O)c2nnc(N3CCOCC3)s2)c1` [compound 1096, 4-[5-(2-aminoethyl)pyrimidin-2-yl]-3-(5-morpholin-4-yl-1,3,4-thiadiazole-2-carbonyl)benzonitrile], the IC50 was 10 to 1000 nM.
